Source: patent US20240092784A1, “CONDENSED HETEROCYCLIC COMPOUND” (NISSAN CHEMICAL CORPORATION, priority 2020, published 2024)

These compounds were tested against human SPR (Homo sapiens (Human), UniProt P35270) (assay: Evaluation Example 2: Measurement of human SPR inhibitory activity (seven concentrations, sepiapterin absorbance at 420 nm)). Conditions: Evaluation Example 2, seven concentrations 0.14 nM to 100 nM, 240 minutes at room temperature, read-out: IC50.
human SPR, sequence (P35270 whole entry): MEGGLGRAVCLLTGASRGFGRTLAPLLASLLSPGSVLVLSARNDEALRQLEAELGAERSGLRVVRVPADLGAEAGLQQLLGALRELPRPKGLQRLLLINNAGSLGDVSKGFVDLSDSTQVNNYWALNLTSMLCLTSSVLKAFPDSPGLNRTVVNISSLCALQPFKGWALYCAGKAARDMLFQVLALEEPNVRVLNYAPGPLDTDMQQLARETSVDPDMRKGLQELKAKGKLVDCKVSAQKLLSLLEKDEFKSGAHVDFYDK
Type: biochemical
Outline: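 His-tagged full-length human SPR (1-261) was expressed in E. coli and the tag removed. Enzyme at 150 ng/mL in 100 mM Tris-HCl pH 7.5/0.01% BSA was mixed with compound (0.14–100 nM, seven points), 120 μM sepiapterin and 160 μM NADPH, both as added-solution concentrations. After 240 min at room temperature, remaining sepiapterin was read at 420 nm to give percent inhibition.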
`COCCN(C)C(=O)/C=C/c1cnn2c(O)c(C(=O)NC3CC3)c(=O)n(CC(C)C)c12` [compound 519, (E)-N-Cyclopropyl-7-hydroxy-4-isobutyl-3-(3-((2-methoxyethyl)(methyl)amino)-3-oxoprop-1-en-1-yl)-5-oxo-4,5-dihydropyrazolo[1,5-a]pyrimidine-6-carboxamide] showed an IC50 of 0.68 nM. `CC(C)Cn1c(=O)c(C(=O)NC2CC2)c(O)n2ncc(/C=C/C(=O)N3CCC[C@@H](CO)C3)c12` [compound 520, (R,E)-N-Cyclopropyl-7-hydroxy-3-(3-(3-(hydroxymethyl)piperidin-1-yl)-3-oxoprop-1-en-1-yl)-4-isobutyl-5-oxo-4,5-dihydropyrazolo[1,5-a]pyrimidine-6-carboxamide] showed an IC50 of 0.77 nM. For `CC(C)Cn1c(=O)c(C(=O)NC2CC2)c(O)n2ncc(/C=C/C(=O)N3CCO[C@H](CO)C3)c12` [compound 521, (S,E)-N-Cyclopropyl-7-hydroxy-3-(3-(2-(hydroxymethyl)morpholino)-3-oxoprop-1-en-1-yl)-4-isobutyl-5-oxo-4,5-dihydropyrazolo[1,5-a]pyrimidine-6-carboxamide], the IC50 was 0.59 nM. In the case of `CCN(C)C(=O)/C=C/c1cnn2c(O)c(C(=O)NC3CC3)c(=O)n(CC(C)C)c12` [compound 522, (E)-N-Cyclopropyl-3-(3-(ethyl(methyl)amino)-3-oxoprop-1-en-1-yl)-7-hydroxy-4-isobutyl-5-oxo-4,5-dihydropyrazolo[1,5-a]pyrimidine-6-carboxamide], the IC50 is reported as 0.78 nM. In the case of `CC(C)Cn1c(=O)c(C(=O)NC2CC2)c(O)n2ncc(/C=C/C(=O)N(C)C3CCOCC3)c12` [compound 523, (E)-N-Cyclopropyl-7-hydroxy-4-isobutyl-3-(3-(methyl(tetrahydro-2H-pyran-4-yl)amino)-3-oxoprop-1-en-1-yl)-5-oxo-4,5-dihydropyrazolo[1,5-a]pyrimidine-6-carboxamide], the IC50 is reported as 0.71 nM. In the case of `CC(C)Cn1c(=O)c(C(=O)NC2CC2)c(O)n2ncc(/C=C/C(=O)N(C)CCC#N)c12` [compound 524, (E)-3-(3-((2-Cyanoethyl)(methyl)amino)-3-oxoprop-1-en-1-yl)-N-cyclopropyl-7-hydroxy-4-isobutyl-5-oxo-4,5-dihydropyrazolo[1,5-a]pyrimidine-6-carboxamide], the IC50 is reported as 0.72 nM. `CC(C)Cn1c(=O)c(C(=O)NC2CC2)c(O)n2ncc(/C=C/C(=O)N3CCOC[C@@H]3CO)c12` [compound 525, (S,E)-N-Cyclopropyl-7-hydroxy-3-(3-(3-(hydroxymethyl)morpholino)-3-oxoprop-1-en-1-yl)-4-isobutyl-5-oxo-4,5-dihydropyrazolo[1,5-a]pyrimidine-6-carboxamide] gave an IC50 of 0.65 nM. Compound `CC(C)Cn1c(=O)c(C(=O)NC2CC2)c(O)n2ncc(/C=C/C(=O)N3CCOC[C@H]3CO)c12` [compound 526, (R,E)-N-Cyclopropyl-7-hydroxy-3-(3-(3-(hydroxymethyl)morpholino)-3-oxoprop-1-en-1-yl)-4-isobutyl-5-oxo-4,5-dihydropyrazolo[1,5-a]pyrimidine-6-carboxamide] has an IC50 of 0.67 nM. Work on `CC(C)Cn1c(=O)c(C(=O)NC2CCC2)c(O)n2ncc(/C=C/C(=O)N3CCOCC3)c12` [compound 527, (E)-N-Cyclobutyl-7-hydroxy-4-isobutyl-3-(3-morpholino-3-oxoprop-1-en-1-yl)-5-oxo-4,5-dihydropyrazolo[1,5-a]pyrimidine-6-carboxamide] yielded an IC50 of 0.74 nM. For `CC(C)Cn1c(=O)c(C(=O)NC2CC2)c(O)n2ncc(/C=C/C(=O)N3CCC[C@H](CO)C3)c12` [compound 528, (S,E)-N-Cyclopropyl-7-hydroxy-3-(3-(3-(hydroxymethyl)piperidin-1-yl)-3-oxoprop-1-en-1-yl)-4-isobutyl-5-oxo-4,5-dihydropyrazolo[1,5-a]pyrimidine-6-carboxamide], the IC50 was 0.85 nM. In the case of `CC(C)Cn1c(=O)c(C(=O)NC2CC2)c(O)n2ncc(/C=C/C(=O)N3CCO[C@@H](C(F)(F)F)C3)c12` [compound 529, (R,E)-N-Cyclopropyl-7-hydroxy-4-isobutyl-5-oxo-3-(3-oxo-3-(2-(trifluoromethyl)morpholino)prop-1-en-1-yl)-4,5-dihydropyrazolo[1,5-a]pyrimidine-6-carboxamide], the IC50 is reported as 1.03 nM. In the case of `CC(C)Cn1c(=O)c(C(=O)NC2CC2)c(O)n2ncc(/C=C/C(=O)N3CCO[C@H](C(F)(F)F)C3)c12` [compound 530, (S,E)-N-Cyclopropyl-7-hydroxy-4-isobutyl-5-oxo-3-(3-oxo-3-(2-(trifluoromethyl)morpholino)prop-1-en-1-yl)-4,5-dihydropyrazolo[1,5-a]pyrimidine-6-carboxamide], the IC50 is reported as 1.14 nM. Work on `COC[C@H]1COCCN1C(=O)/C=C/c1cnn2c(O)c(C(=O)NC3CC3)c(=O)n(CC(C)C)c12` [compound 531, (S,E)-N-Cyclopropyl-7-hydroxy-4-isobutyl-3-(3-(3-(methoxymethyl)morpholino)-3-oxoprop-1-en-1-yl)-5-oxo-4,5-dihydropyrazolo[1,5-a]pyrimidine-6-carboxamide] yielded an IC50 of 0.73 nM. For `COC[C@@H]1COCCN1C(=O)/C=C/c1cnn2c(O)c(C(=O)NC3CC3)c(=O)n(CC(C)C)c12` [compound 532, (R,E)-N-Cyclopropyl-7-hydroxy-4-isobutyl-3-(3-(3-(methoxymethyl)morpholino)-3-oxoprop-1-en-1-yl)-5-oxo-4,5-dihydropyrazolo[1,5-a]pyrimidine-6-carboxamide], the IC50 was 0.55 nM. `CC(C)Cn1c(=O)c(C(=O)NC2CC2)c(O)n2ncc(/C=C/C(=O)N3C4CCC3COC4)c12` [compound 533, (E)-3-(3-(3-Oxa-8-azabicyclo[3.2.1]octan-8-yl)-3-oxoprop-1-en-1-yl)-N-cyclopropyl-7-hydroxy-4-isobutyl-5-oxo-4,5-dihydropyrazolo[1,5-a]pyrimidine-6-carboxamide] gave an IC50 of 0.64 nM. For `CC(C)Cn1c(=O)c(C(=O)NC2CC2)c(O)n2ncc(/C=C/C(=O)N3CCOC[C@H]3C(F)(F)F)c12` [compound 534, (S,E)-N-Cyclopropyl-7-hydroxy-4-isobutyl-5-oxo-3-(3-oxo-3-(3-(trifluoromethyl)morpholino)prop-1-en-1-yl)-4,5-dihydropyrazolo[1,5-a]pyrimidine-6-carboxamide], the IC50 was 0.87 nM. `CC(C)Cn1c(=O)c(C(=O)NC2CC2)c(O)n2ncc(/C=C/C(=O)N3CCCCO3)c12` [compound 535, (E)-3-(3-(1,2-Oxazinan-2-yl)-3-oxoprop-1-en-1-yl)-N-cyclopropyl-7-hydroxy-4-isobutyl-5-oxo-4,5-dihydropyrazolo[1,5-a]pyrimidine-6-carboxamide] showed an IC50 of 0.92 nM. `CC(C)Cn1c(=O)c(C(=O)NC2CC2)c(O)n2ncc(/C=C/C(=O)N3CCC[C@H]3C)c12` [compound 536, (R,E)-N-Cyclopropyl-7-hydroxy-4-isobutyl-3-(3-(2-methylpyrrolidine-1-yl)-3-oxoprop-1-en-1-yl)-5-oxo-4,5-dihydropyrazolo[1,5-a]pyrimidine-6-carboxamide] showed an IC50 of 0.92 nM. `CC(C)Cn1c(=O)c(C(=O)NC2CC2)c(O)n2ncc(/C=C/C(=O)N3CCCC3(C)C)c12` [compound 537, (E)-N-Cyclopropyl-3-(3-(2,2-dimethylpyrrolidin-1-yl)-3-oxoprop-1-en-1-yl)-7-hydroxy-4-isobutyl-5-oxo-4,5-dihydropyrazolo[1,5-a]pyrimidine-6-carboxamide] was tested, and the IC50 was 0.86 nM. Work on `CC(C)Cn1c(=O)c(C(=O)NC2CC2)c(O)n2ncc(/C=C/C(=O)N3C[C@H]4C[C@@H]3CO4)c12` [compound 538, 3-((E)-3-((1R,4R)-2-Oxa-5-azabicyclo[2.2.1]heptan-5-yl)-3-oxoprop-1-en-1-yl)-N-cyclopropyl-7-hydroxy-4-isobutyl-5-oxo-4,5-dihydropyrazolo[1,5-a]pyrimidine-6-carboxamide] yielded an IC50 of 0.69 nM. `CC(C)Cn1c(=O)c(C(=O)NC2CC2)c(O)n2ncc(/C=C/C(=O)N3C[C@@H]4C[C@H]3CO4)c12` [compound 539, 3-((E)-3-((1S,4S)-2-Oxa-5-azabicyclo[2.2.1]heptan-5-yl)-3-oxoprop-1-en-1-yl)-N-cyclopropyl-7-hydroxy-4-isobutyl-5-oxo-4,5-dihydropyrazolo[1,5-a]pyrimidine-6-carboxamide] showed an IC50 of 0.64 nM. `CC[C@@H]1COCCN1C(=O)/C=C/c1cnn2c(O)c(C(=O)NC3CC3)c(=O)n(CC(C)C)c12` [compound 540, (R,E)-N-Cyclopropyl-3-(3-(3-ethylmorpholino)-3-oxoprop-1-en-1-yl)-7-hydroxy-4-isobutyl-5-oxo-4,5-dihydropyrazolo[1,5-a]pyrimidine-6-carboxamide] showed an IC50 of 0.66 nM. For `CC(C)Cn1c(=O)c(C(=O)NC2CC2)c(O)n2ncc(/C=C/C(=O)N3CCOCC34CC4)c12` [compound 541, (E)-N-Cyclopropyl-7-hydroxy-4-isobutyl-5-oxo-3-(3-oxo-3-(7-oxa-4-azaspiro[2.5]octan-4-yl)prop-1-en-1-yl)-4,5-dihydropyrazolo[1,5-a]pyrimidine-6-carboxamide], the IC50 was 0.82 nM. `CC(C)Cn1c(=O)c(C(=O)NC2CC2)c(O)n2ncc(/C=C/C(=O)N3C4CCCC3COC4)c12` [compound 542, (E)-3-(3-(3-Oxa-9-azabicyclo[3.3.1]nonan-9-yl)-3-oxoprop-1-en-1-yl)-N-cyclopropyl-7-hydroxy-4-isobutyl-5-oxo-4,5-dihydropyrazolo[1,5-a]pyrimidine-6-carboxamide] gave an IC50 of 0.78 nM. `CC(C)Cn1c(=O)c(C(=O)NC2CC2)c(O)n2ncc(/C=C/C(=O)N3CCCCCO3)c12` [compound 543, (E)-3-(3-(1,2-Oxazepan-2-yl)-3-oxoprop-1-en-1-yl)-N-cyclopropyl-7-hydroxy-4-isobutyl-5-oxo-4,5-dihydropyrazolo[1,5-a]pyrimidine-6-carboxamide] was tested, and the IC50 was 0.97 nM. In the case of `CC[C@H]1COCCN1C(=O)/C=C/c1cnn2c(O)c(C(=O)NC3CC3)c(=O)n(CC(C)C)c12` [compound 544, (S,E)-N-Cyclopropyl-3-(3-(3-ethylmorpholino)-3-oxoprop-1-en-1-yl)-7-hydroxy-4-isobutyl-5-oxo-4,5-dihydropyrazolo[1,5-a]pyrimidine-6-carboxamide], the IC50 is reported as 0.95 nM.
